Source: patent US6933316B2, “Indole compounds” (National Health Research Institutes, priority 2001, dated 2005)

Key:
[1] = test system: human cancer cells, including multi-drug resistant cancer cells; conditions: wide variety of human cancer cells; cited from earlier work
[2] = test system: colchicine binding site on tubulin; conditions: compared with colchicine; cited from earlier work
angiogenesis = conditions: cited from earlier work
[3] = cited from earlier work
KB cell line = assay: Cell growth inhibition assay on human cancer lines, parental KB; format: cell-based; conditions: cell type Oral, read-out: Cytotoxicity against KB
Procedure: (§1) Cell Growth Inhibition Assay: MCF-7 breast carcinoma cells were maintained in plastic dishes in DMEM medium supplemented with 10% fetal bovine serum. For in vitro treatment, tumor cells were seeded in […] of culture medium/well in 96-well plates to a final cell density of 6×10^3 cell/mL and incubated in a CO2 incubator at 37° C. for 24 h. The cells were treated with at least five different concentrations of a test indole compound, and incubated in a CO2 incubator at 37° C. for 72 h. The number of viable cells was estimated using MTS assay and absorbance was measured at 490 nm. Cytotoxicity of the test compounds was expressed in terms of IC50 values. The values presented represent averages of three independent experiments, each with duplicate samples.
(§2) Cell Growth Inhibition Assay on Multiple-drug Resistant Human Cancer Lines: Indole compounds were tested against several panels of drug-resistant cell lines. It is well known that several anti-mitotic agents, including vinca alkaloid (vincristine, vinblastine) and taxol, have been introduced in clinic to treat various human cancers. […] The mechanisms responsible for taxol resistance include overexpression of p-glycoprotein and mutation of tubulin. For comparison, […] anti-mitotic agents, i.e., Vincristine, VP-16, Cisplatin, CPT (camptothecin), and Taxol (paclitaxel) were also tested against several panels of drug-resistant cell lines. […]

HONE-1 cell line = assay: Cell growth inhibition assay on human cancer lines, parental HONE-1; format: cell-based; conditions: NPC, read-out: Cytotoxicity against HONE-1
Procedure: as §1, §2

## COc1ccc(/C=C\c2cc(OC)c(OC)c(OC)c2)cc1O [CA-4, combretastatin A-4]
[1]
  Cytotoxicity against human cancer cells: strong cytotoxicity
[2]
  Affinity for the colchicine binding site on tubulin relative to colchicine: higher affinity for the colchicine binding site on tubulin than colchicine itself
angiogenesis
  Anti-angiogenesis activity: anti-angiogenesis activity
[3]
  Water-solubility: low water-solubility

## N.N.[Cl][Pt][Cl] [Cisplatin]
KB cell line
  IC50: 3 nM
HONE-1 cell line
  IC50: 3000 nM
